Measurements as given in patent US9738684B2, “N-terminally modified linear and branched polyamine conjugated peptidomimetics as antimicrobials agents” (COUNCIL OF SCIENTIFIC & INDUSTRIAL RESEARCH, priority 2015, dated 2017).
Values joined by “and” are separate entries in the source; they are usually repeats but may differ in a detail not shown here. Identical values can stand only once.

Tests used:
[1] = system: human red blood cells (hRBC); assay: Hemolytic activity; type: cell-based; settings: 250 μg/mL, 1 h at 37° C.
[2] = system: peripheral blood mononuclear cells (PBMCs); assay: LDH release cytotoxicity assay; type: cell-based, human; settings: 20 μg/mL, 24 h
Procedure: For the experiment a protocol as used previously was employed with minor modifications [J. Immunol. Methods, 115:61-69, 1988; Chem. Biol. 20:1286-1295, 2013.]. Briefly, blood was collected from healthy human donors in sodium heparin anticoagulant tubes in accordance with institutional guidelines. The blood was diluted 1:1 with NaCl/Pi (35 mM phosphate buffer, 150 mM NaCl, pH 7.2). Blood cells were separated over histopaque (Sigma-aldrich) by centrifugation for 30 min at 1200 rpm. The PBMCs were collected and washed twice with NaCl/Pi (35 mM phosphate buffer, 150 mM NaCl, pH 7.2). The cells were then re-suspended in complete RPMI 1640 medium (Himedia) supplemented with 10% FBS (Sigma) and quantified by trypan blue exclusion on microscope. PBMCs (1×10^6 cells/mL) in complete media were seeded into a 24-well plate and left in the incubator for 2 h at 37° C. in 5% CO2. The cells were then treated with 1c, 1d and VAN at desired concentrations (20 μg/mL). 2% Triton X-100 was used as a […] control. After 24 h of incubation, the content of each well was transferred to sterile 1.5 mL eppendorf tube and cells were pelleted at 2000 rpm for 10 min. The supernatant was assessed for the release of LDH by using the TOX7 kit (Sigma). […]

[3] = system: MRSA (ATCC 33591) biofilm; assay: Inhibition of biofilm formation (alamar blue, crystal violet); type: cell-based, Staphylococcus aureus; settings: sub-MICb; for reduction in metabolic activity (alamar blue), biofilm formation: printed as 'reduction up to'
Procedure: To evaluate potential of designed active peptidomimetics against MRSA biofilms a methodology as used previously was employed with minor modifications [Antimicrob. Agents Chemother., 57:2726-2737, 2013]. Briefly, freshly inoculated MRSA (ATCC 33591) was grown in biofilm growth media (TSB supplemented with 0.5% w/v NaCl and 0.25% w/v glucose) overnight. Next day, the culture was diluted in fresh biofilm growth media to 10^5 CFU/mL. 200 μl of diluted culture was dispensed in wells of a 96-well polystyrene plate for biofilm formation. […] Biofilm cultures were re-incubated at 37° C. for 24 h. After removal of medium, the biofilms were further washed twice with sterile NaCl/Pi buffer and assessed for metabolic activity (alamar blue assay) and biomass quantification (Crystal violet assay).

[4] = system: Escherichia coli (ATCC 11775); assay: MIC, serial broth dilution; type: cell-based; parameters: MIC E. coli. (ATCC 11775): unit not given here; settings: MHB, 18 h, 37° C.

| Compound | % H, percentage hemolysis of human RBCs [1] | % LDH release against peripheral blood mononuclear cells [2] | % biomass reduction (crystal violet), biofilm formation [3] | reduction in metabolic activity (alamar blue), biofilm formation [3] | MIC E. coli. (ATCC 11775) [4] |
| --- | --- | --- | --- | --- | --- |
| NCCCNCCCCNCCCNC(=O)C(Cc1c[nH]c2ccccc12)NC(=O)C(Cc1c[nH]c2ccccc12)NC(=O)Cc1ccc(C(F)(F)F)cc1 (stereo not shown) [1c] | 2% | 5.78±6.58% and 5.78% | 19.8±5.6% | 33.1±5.7% | 56.8 |
| CCCCCCCCCC(=O)NC(Cc1c[nH]c2ccccc12)C(=O)NC(Cc1c[nH]c2ccccc12)C(=O)NCCCNCCCCNCCCN (stereo not shown) [1d] | 9% | 17.56±10.15% and 17.5% | 28.2±11.1% | 26.4±3.3% | 14.2 |
